The results in this text go back to patent US20200179294A1, “MANGANOPORPHYRIN-POLYPHENOL MULTILAYER CAPSULES AS RADICAL AND REACTIVE OXYGEN SPECIES SCAVENGERS” (THE UAB RESEARCH FOUNDATION, priority 2018, published 2020).

The data set in a line: Ellipsometry of dry TA/MnP-PVPON films at pH 5 and pH 2.5 (film stability). Type of data set: physicochemical. As to the method:
The stability of the MnP-PVPON/TA multilayers dried from pH=2.5 was examined since ionization of TA is minimized at this pH (below the pKa of TA), which could result in destabilization of the film.
Ellipsometry: Film thickness was measured using a M2000U spectroscopic ellipsometer (Woollam). Single-side polished silicon wafers 500-μm-thick (University Wafer) of 20 mm×50 mm were cleaned in a mixture of concentrated sulfuric acid and Nocromix (Godax Laboratories) for 24 hours, washed with DI water, dried with a stream of nitrogen (Airgas) and used immediately thereafter. First, a precursor layer of poly(ethyleneimine) (PEI, Sigma-Aldrich) was adsorbed onto the wafer surface from 1 mg mL^−1 PEI aqueous solution for 10 min. After that the deposition of TA, PVPON and MnP-PVPON onto silicon wafers coated with a PEI layer was performed using a 5-mL liquid flow-through cell (Woollam) at pH=5 and pH=7.2 (0.01 M phosphate buffer). The pH values of 0.01 M phosphate buffers were adjusted using 0.1 M HCl and NaOH aqueous solutions. Dry thickness measurements were performed between 400 and 1000 nm at 65, 70, and 75° angles of incidence, while wet thickness studies were monitored at 75° incidence angle. […] The thickness of silicon oxide was determined using known optical constants. […]

On to `O=C(OC[C@H]1O[C@@H](OC(=O)c2cc(O)c(O)c(OC(=O)c3cc(O)c(O)c(O)c3)c2)[C@H](OC(=O)c2cc(O)c(O)c(OC(=O)c3cc(O)c(O)c(O)c3)c2)[C@@H](OC(=O)c2cc(O)c(O)c(OC(=O)c3cc(O)c(O)c(O)c3)c2)[C@@H]1OC(=O)c1cc(O)c(O)c(OC(=O)c2cc(O)c(O)c(O)c2)c1)c1cc(O)c(O)c(OC(=O)c2cc(O)c(O)c(O)c2)c1` [TA, tannic acid], for which the Layer thickness is listed as 1.8 nm and the Total thickness is 4.1 nm.
